Assay results reported in patent US20140045824A1, “METHOD FOR PRODUCING COMPLEX CRYSTAL AND METHOD FOR SCREENING COMPLEX CRYSTAL” (priority 2011, published 2014).

Columns and labels:
Assay type in all cases: physicochemical
[1] = Cocrystal screening by mixing and grinding method (Comparative Example 5); design: key: A cocrystal was completely formed.; B: A mixture of a cocrystal and the host compound or guest compound was formed.; C: A cocrystal was not formed (a mixture of the host compound and the guest compound was formed); settings: host carbamazepine, equimolar guest, mixed/ground in agate mortar
Excerpt: (§1) Carbamazepine and a guest compound shown in Table 4 in an equimolar amount to carbamazepine were weighed and mixed using an agate mortar. At that time, particles having a large size to an extent that they could be distinguished through visual inspection were grinded on the agate mortar. The obtained solids were subjected to powder X-ray diffraction measurement and thermal analysis.

[2] = Cocrystal screening by slurry method (Comparative Examples 4-1 to 4-6), powder X-ray diffraction; design: key: A cocrystal was completely formed.; B: A mixture of a cocrystal and the host compound or guest compound was formed.; C: A cocrystal was not formed (a mixture of the host compound and the guest compound was formed).; —: A residue was not obtained; settings: host carbamazepine, slurry in tetrahydrofuran, room temperature 7 days
Protocol: (§2) 3 mg (0.0127 mmoles) of carbamazepine and a guest compound shown in Table 4 in an equimolar amount (0.0127 mmoles) to carbamazepine were weighed and put into a glass container, to which was then added 60 μL of water. These were shaken at room temperature for 7 days, and the obtained residues were subjected to powder X-ray diffraction measurement. 3 mg (0.0127 mmoles) of carbamazepine and a guest compound shown in Table 4 in an equimolar amount (0.0127 mmoles) to carbamazepine were weighed and put into a glass container, to which was then added 60 μL of ethanol. These were shaken at room temperature for 7 days, and the obtained residues were subjected to powder X-ray diffraction measurement. 3 mg (0.0127 mmoles) of carbamazepine and a guest compound shown in Table 4 in an equimolar amount (0.0127 mmoles) to carbamazepine were weighed and put into a glass container, to which was then added 60 μL of tetrahydrofuran. These were shaken at room temperature for 7 days, and the obtained residues were subjected to powder X-ray diffraction measurement. 3 mg (0.0127 mmoles) of carbamazepine and a guest compound shown in Table 4 in an equimolar amount (0.0127 mmoles) to carbamazepine were weighed and put into a glass container, to which was then added 60 μL of toluene. These were shaken at room temperature for 7 days, and the obtained residues were subjected to powder X-ray diffraction measurement. 3 mg (0.0127 mmoles) of carbamazepine and a guest compound shown in Table 4 in an equimolar amount (0.0127 mmoles) to carbamazepine were weighed and put into a glass container, to which was then added 60 μL of ethyl acetate. These were shaken at room temperature for 7 days, and the obtained residues were subjected to powder X-ray diffraction measurement. 3 mg (0.0127 mmoles) of carbamazepine and a guest compound shown in Table 4 in an equimolar amount (0.0127 mmoles) to carbamazepine were weighed and put into a glass container, to which was then added 60 μL of acetone. These were shaken at room temperature for 7 days, and the obtained residues were subjected to powder X-ray diffraction measurement.

[3] = Cocrystal screening by heating method without menthol (Comparative Example 6); design: key: A cocrystal was completely formed.; B: A mixture of a cocrystal and the host compound or guest compound was formed.; C: A cocrystal was not formed (a mixture of the host compound and the guest compound was formed); settings: host carbamazepine, equimolar guest, no menthol, 4 hours at 80° C.
Protocol: as §1, with “10 mg of this mixed powder was weighed and put into a test tube and heated for 4 hours in an oven at 80° C., and the” for “The”

[4] = Cocrystal screening by slurry method (Comparative Examples 4-1 to 4-6), powder X-ray diffraction; design: key: A cocrystal was completely formed.; B: A mixture of a cocrystal and the host compound or guest compound was formed.; C: A cocrystal was not formed (a mixture of the host compound and the guest compound was formed); settings: host carbamazepine
Protocol: as §2

[5] = Cocrystal screening by heat melting 1-menthol (Example 2), powder X-ray diffraction and thermal analysis; design: key: A cocrystal was completely formed.; B: A mixture of a cocrystal and the host compound or guest compound was formed.; C: A cocrystal was not formed (a mixture of the host compound and the guest compound was formed); settings: host carbamazepine, equimolar guest, 1-menthol added, 10 hours at 80° C.
Protocol: Carbamazepine and a guest compound shown in Table 4 in an equimolar amount to carbamazepine were weighed and mixed using an agate mortar. […] Thereafter, the obtained mixed powder of carbamazepine, the guest compound, and 1-menthol was heated for 10 hours in an oven at 80° C., and the obtained solids were subjected to powder X-ray diffraction measurement and thermal analysis.

Cocrystal formation, Comparative Example 5 [1]: C
Cocrystal formation, Comparative Example 4-3 [2]: —
Cocrystal formation, Comparative Example 6 [3]: B
Cocrystal formation, Comparative Example 4-6 ([4]; slurry in acetone, room temperature 7 days): C
Cocrystal formation, Comparative Example 4-2 ([4]; slurry in ethanol, room temperature 7 days): C
Cocrystal formation, Comparative Example 4-5 ([4]; slurry in ethyl acetate, room temperature 7 days): A
Cocrystal formation, Comparative Example 4-4 ([4]; slurry in toluene, room temperature 7 days): B
Cocrystal formation, Comparative Example 4-1 ([4]; slurry in water, room temperature 7 days): C
Cocrystal formation, Comparative Example 4* ([4]; slurry summary: A if a cocrystal was formed in any one of Comparative Examples 4-1 to 4-6): A
Cocrystal formation, Example 2 [5]: A
SMILES: O=C(O)CC(=O)O [Malonic acid]
